Legend:
mGlu5 receptor [1] = molecular target: T1, mGlu5 receptor (Homo sapiens, UniProt P41594); assay: Functional activity at mGlu5 receptor as calcium fluorescence measurements; type: cell-based
T1 construct: Human mGluR5 open reading frame (ORF), comprehensive of the stop codon, were cloned into the pcDNA4/TO/myc-His™ A vector; expressed in transfected cells
Source text: (§1) Cell lines stably transfected were generated using inducible expression vectors encoding human mGlu5 receptor using the Tetracycline-Regulated Expression system (T-REx™ system, Invitrogen, Life Technologies). Human mGluR5 open reading frame (ORF), comprehensive of the stop codon, were cloned into the pcDNA4/TO/myc-His™ A vector, carrying the TetO2. The insertion site was HindIII-PstI for mGluR5 receptors. The obtained constructs were then transfected into the T-REx CHO™ cell line using the FuGENE protocol (Roche); the CHO T-REx™ cell line stably expresses the Tet repressor (from the pcDNA6/TR plasmid) under the selection of blasticidin, 10 μg/ml. Stable clones were obtained selecting with zeocin 1 mg/ml and maintaining in ULTRA CHO medium (LONZA) supplemented with dialyzed FBS, zeocin, blasticidin, at 37° C., in an atmosphere of 5% CO2. The expression of h-mGluR5 receptors was de-repressed with 1 μg/ml tetracycline for 18 h before binding experimentation, while the expression of h-mGluR5 receptors was derepressed respectively with 3 ng/ml and 10 ng/ml tetracycline for 18 h before calcium fluorescence experimentation.
Cells were seeded into black-walled, clear-bottom, 96-well plates at a density of 80000 cell/well, in RPMI (without Phenol Red, without L-glutamine; Gibco LifeTechnologies, CA) supplemented with 10% dialyzed FBS. Following 18-h incubation with tetracycline, the cells were loaded with 2 mM Ca^2+- sensitive fluorescent dye Fluo-4/AM (Molecular Probes) in Hanks' balanced saline solution (HBSS, Gibco LifeTechnologies, CA) with […] Hepes (Sigma) and 2.5 mM probenecid (Sigma), for 1 h at 37° C. The cells were washed three times with HBSS to remove extracellular dye. Fluorescence signals were measured by using the fluorescence microplate reader Flexstation III (Molecular Devices) at sampling intervals of 1.5 s for 60 s.
The antagonist potency was determined using the EC80 of the quisqualate used as agonist and the potentiation of mGlu5 activation was determined using the EC20 of the agonist (quisqualate or glutamate). […]

mGlu5 receptor [2] = molecular target: T1, mGlu5 receptor; assay: Radioligand binding assay ([3H]MPEP) at cloned mGluR5; conditions: CHO T-REx h-mGluR5 cells, 4 nM [3H]MPEP, 60 min at 25° C.; read-out: affinity (Ki) for mGlu5 receptor
Source text: as §1, with “Stable clones were obtained selecting with zeocin 1 mg/ml and maintaining in ULTRA CHO medium (LONZA) supplemented with dialyzed FBS, zeocin, blasticidin, at 37° C., in an atmosphere of 5% CO2.” left out
Affinity at transmembrane glutamate metabotropic mGluR5 receptor subtypes was evaluated according to the methods of Anderson (Anderson et al., J Pharmacol. Exp. Ther., (2002), Vol. 303(3), pp. 1044-51), with some modifications. […] Non-specific binding was determined in the presence of 10 μM MPEP. […] The filters were then washed with cold buffer and the radioactivity retained on the filters was counted by liquid scintillation spectrometry (Betaplate 1204 BS-Wallac). […]

T1 sequence (P41594 21-1212): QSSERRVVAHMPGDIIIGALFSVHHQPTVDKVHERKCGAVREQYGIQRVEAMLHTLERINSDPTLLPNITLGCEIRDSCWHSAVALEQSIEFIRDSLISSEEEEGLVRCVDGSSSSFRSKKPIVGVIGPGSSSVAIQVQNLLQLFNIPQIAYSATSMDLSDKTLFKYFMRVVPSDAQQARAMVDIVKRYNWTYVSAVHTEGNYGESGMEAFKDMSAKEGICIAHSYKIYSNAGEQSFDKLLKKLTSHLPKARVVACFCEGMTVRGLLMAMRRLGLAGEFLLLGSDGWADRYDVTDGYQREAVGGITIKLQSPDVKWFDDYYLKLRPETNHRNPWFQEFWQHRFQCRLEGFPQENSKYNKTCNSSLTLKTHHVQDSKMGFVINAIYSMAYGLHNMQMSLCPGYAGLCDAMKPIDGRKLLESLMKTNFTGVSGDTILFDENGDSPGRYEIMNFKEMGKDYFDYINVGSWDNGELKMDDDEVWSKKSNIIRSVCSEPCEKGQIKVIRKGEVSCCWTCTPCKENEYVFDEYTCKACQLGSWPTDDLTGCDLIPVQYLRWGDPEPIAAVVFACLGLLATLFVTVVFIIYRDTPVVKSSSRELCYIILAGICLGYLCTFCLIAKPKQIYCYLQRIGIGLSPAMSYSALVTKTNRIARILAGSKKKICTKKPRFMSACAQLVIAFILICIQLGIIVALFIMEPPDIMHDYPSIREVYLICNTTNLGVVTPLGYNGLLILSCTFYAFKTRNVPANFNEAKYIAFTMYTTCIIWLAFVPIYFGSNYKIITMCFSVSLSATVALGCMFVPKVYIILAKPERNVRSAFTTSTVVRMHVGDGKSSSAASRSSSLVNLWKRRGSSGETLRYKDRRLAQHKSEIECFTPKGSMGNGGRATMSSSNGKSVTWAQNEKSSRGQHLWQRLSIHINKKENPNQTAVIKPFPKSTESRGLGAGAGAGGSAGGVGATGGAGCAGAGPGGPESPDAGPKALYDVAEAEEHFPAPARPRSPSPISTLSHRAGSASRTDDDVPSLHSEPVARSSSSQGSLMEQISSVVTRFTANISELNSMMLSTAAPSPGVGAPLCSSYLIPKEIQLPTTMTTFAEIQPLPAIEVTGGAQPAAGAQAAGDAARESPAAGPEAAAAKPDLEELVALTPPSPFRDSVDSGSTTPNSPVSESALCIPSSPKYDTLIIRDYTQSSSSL

EC50 (mGlu5 receptor [1]; potentiation of mGlu5 activation at EC20 of the agonist (quisqualate or glutamate), read-out: positive allosteric activity EC50) [µM]	Ki (mGlu5 receptor [2]) [µM]	type of allosteric modulation (mGlu5 receptor [1])	IC50 (mGlu5 receptor [1]; antagonist potency at EC80 of quisqualate, read-out: negative allosteric modulation activity IC50) [µM]	SMILES
0.294	0.0338			O=C(c1cccc(Cl)c1)N1CCn2c(C#Cc3cccc(Cl)c3)nnc2C1 [Example 8, (3-Chlorophenyl)-[3-[2-(3-chlorophenyl)ethynyl]-6,8-dihydro-5H-[1,2,4]triazolo[4,3-a]pyrazin-7-yl]methanone]
	0.032	negative allosteric modulator	0.0609	CCN(C)C(=O)N1CCn2c(C#Cc3cccc(C)c3)nnc2C1 [Example 40, N-Ethyl-N-methyl-3-[2-(m-tolyl)ethynyl]-6,8-dihydro-5H-[1,2,4]triazolo[4,3-a]pyrazine-7-carboxamide]
